In patent publication US5457106A, “Pyridine derivatives, their production and use” (Takeda Chemical Industries, Ltd., priority 1991, dated 1995):
Structures can show the parent of a compound that is named as a salt.

Assays:
cyclooxygenase = molecular target: T1, cyclooxygenase (Rattus norvegicus, UniProt Q63921); assay: Cyclooxygenase inhibitory activity (HHT formation from arachidonic acid in rat platelet-rich plasma); assay type: cell-based, rat (Jcl:wistar)
T1 construct: from tissue; host or cells: platelets in platelet-rich plasma from rat abdominal aorta blood (Jcl:wistar, male)
T1 sequence (Q63921 27-602): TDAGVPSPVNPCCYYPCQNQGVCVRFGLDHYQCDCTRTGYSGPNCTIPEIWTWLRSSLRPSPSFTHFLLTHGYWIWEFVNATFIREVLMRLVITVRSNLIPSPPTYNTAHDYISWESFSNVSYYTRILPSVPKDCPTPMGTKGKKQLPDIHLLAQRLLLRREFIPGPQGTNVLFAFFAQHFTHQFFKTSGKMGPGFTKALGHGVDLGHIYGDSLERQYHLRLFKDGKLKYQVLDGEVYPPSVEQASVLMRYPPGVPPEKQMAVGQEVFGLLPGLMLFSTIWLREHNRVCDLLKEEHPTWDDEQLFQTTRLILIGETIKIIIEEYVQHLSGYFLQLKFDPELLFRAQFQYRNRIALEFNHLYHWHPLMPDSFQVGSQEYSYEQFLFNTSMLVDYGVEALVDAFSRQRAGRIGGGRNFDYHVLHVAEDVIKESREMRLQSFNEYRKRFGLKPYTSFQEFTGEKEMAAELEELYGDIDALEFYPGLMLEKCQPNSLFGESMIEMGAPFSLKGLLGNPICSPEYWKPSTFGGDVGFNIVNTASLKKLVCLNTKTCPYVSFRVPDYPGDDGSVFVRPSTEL

[1] = tested on: Mouse phenylquinone writhing; assay: Mouse phenylquinone writhing inhibitory activity; assay type: in vivo, mouse (Slc: ICR); details: 50 mg/kg, orally; for inhibition in vivo at 50 mg/kg: Mus musculus, po, 20 min, read-out: Inhibitory percentage (phenylquinone writhing)
Method: Mouse Phenylquinone Writhing Inhibitory Activity A Slc: ICR male mouse (4 weeks, weight 17 to 24 g) was used. A test compound suspended in 5% gum arabic solution was administered orally. After 30 minutes, 0.1 ml/10 g body weight of 0.02% phenylquinone solution in water (dissolved by the aid of 5% ethanol) was injected intraperitoneally, and writhing and stretching responses of individual animals were measured for 20 minutes [Siegmund, E., Cadmus, R. and Lu, G.; Proc. Soc. exp. Biol. Med. 95, (1957)].

[2] = tested on: ART (antigen-responding T-cell); assay: In vitro ART (antigen-responding T-cell) proliferation test; assay type: cell-based, Lewis rat; details: for inhibition at 1 µM / inhibition at 10 µM: Rattus norvegicus, T-cell, read-out: % Inhibition of ART growth

Compound `CCCCCCCCCC(=O)NCCSc1ccncc1` [Example 7] has an IC50 (cyclooxygenase) of 4.4 µM.
In the case of `CCCCCCCCCC(=O)NCCCCSc1ccncc1` [Example 8], the IC50 (cyclooxygenase) is reported as 1.1 µM.
`CCCCCCCCCC(=O)NCCCCCSc1ccncc1` [Example 9] gave an IC50 (cyclooxygenase) of 2.2 µM.
For `CCCCCCCCCC(=O)NCCCCCCSc1ccncc1` [Example 10], the IC50 (cyclooxygenase) was 2.2 µM.
With `CCCC(=O)NCCCSc1ccncc1` [Example 14, 4-[3-(butyrylamino)propylthio]pyridine] the IC50 (cyclooxygenase) was 13.2 µM.
`CCCCCC(=O)NCCCSc1ccncc1` [Example 15, 4-[3-(hexanoylamino)propylthio]pyridine] was tested, and the IC50 (cyclooxygenase) was 5.1 µM.
For `CCCCCCCC(=O)NCCCSc1ccncc1` [Example 16], the IC50 (cyclooxygenase) was 12.9 µM.
`CCCCCCCCCCCCCC(=O)NCCCSc1ccncc1` [Example 18, 4-[3-(myristoylamino)propylthio] pyridine] gave an IC50 (cyclooxygenase) of 7 µM.
Work on `O=C(NCCCSc1ccncc1)C1CCCCC1` [Example 23, 4-[3-(cyclohexanoylamino)propylthio]pyridine hydrochloride] yielded an inhibition in vivo at 50 mg/kg [1] of 58%.
`O=C(NCCCSc1ccncc1)c1ccc(-c2ccccc2)cc1` [Example 26, 4-[3-(4-phenylbenzoylamino)propylthio]pyridine hydrochloride] gave an IC50 (cyclooxygenase) of 3.5 µM and an inhibition in vivo at 50 mg/kg [1] of 67%.
In the case of `O=C(NCCCSc1ccncc1)c1cccc2ccccc12` [Example 27, 4-[3-(1-naphthoylamino)propylthio]pyridine hydrochloride], the IC50 (cyclooxygenase) is reported as 5.4 µM.
`COc1ccc(C(=O)NCCCSc2ccncc2)cc1` [Example 30, 4-[3-(4-methoxybenzoylamino)propylthio]pyridine] showed an IC50 (cyclooxygenase) of 6.6 µM.
`CCCCc1ccc(C(=O)NCCCSc2ccncc2)cc1` [Example 34, 4-[3-(4-n-butylbenzoylamino)propylthio]pyridine hydrochloride] gave an IC50 (cyclooxygenase) of 2.9 µM, an inhibition at 1 µM ([2]; 1 μM) of 31% and an inhibition at 10 µM ([2]; 10 μM) of 47%.
`O=C(NCCCSc1ccncc1)c1ccccc1O` [Example 36, 4-[3-(salicyloylamino)propylthio]pyridine hydrochloride] was tested, and the IC50 (cyclooxygenase) was 6 µM.
Work on `O=C(CCCc1ccccc1)NCCCSc1ccncc1` [Example 39, 4-[3-(4-phenyl-n-butyrylamino)propylthio]pyridine] yielded an IC50 (cyclooxygenase) of 4.4 µM.
`O=C(/C=C/c1cnc2ccccc2c1)NCCCSc1ccncc1` [Example 44, 4-[3-(3-quinolineacryloylamino)propylthio]pyridine] was tested, and the IC50 (cyclooxygenase) was 3.3 µM.
For `Cn1cccc1C(=O)NCCCSc1ccncc1` [Example 45, 4-[3-(1-methyl-2-pyrrolecarbonylamino)propylthio]pyridine], the IC50 (cyclooxygenase) was 6.6 µM.
`O=C(NCCCSc1cccnc1)c1cccs1` [Example 48, 3-[3-(thenoylamino)propylthio]pyridine] was tested, and the inhibition in vivo at 50 mg/kg [1] was 31%.
`CN(CCCSc1ccncc1)C(=O)c1cccs1` [Example 51, 4-[3-(N-methyl-2-thenoylamino)propylthio]pyridine] gave an IC50 (cyclooxygenase) of 8.9 µM and an inhibition in vivo at 50 mg/kg [1] of 72%.
`Cc1ccsc1C(=O)NCCCSc1ccncc1` [Example 60, 4-[3-(3-methylthenoylamino)propylthio]pyridine] was tested, and the IC50 (cyclooxygenase) was 4.2 µM and the inhibition in vivo at 50 mg/kg [1] was 41%.
Work on `O=C(NCCCOc1ccccn1)c1cccs1` [Example 61, 2-[3-(2-thenoylamino)propyloxy]pyridine] yielded an IC50 (cyclooxygenase) of 11 µM.
Work on `O=C1c2ccccc2C(=O)N1COc1ccccn1` [Example 67, 2-(phthalimidomethyloxy)pyridine] yielded an inhibition in vivo at 50 mg/kg [1] of 49%.
In the case of `CC(C)(C)C(=O)Nc1ncccc1SCN1C(=O)c2ccccc2C1=O` [Example 74, 3-(phthalimidomethylthio)-2-pivaloylaminopyridine], the inhibition at 1 µM ([2]; 1 μM) is reported as -3%, the inhibition at 10 µM ([2]; 10 μM) is reported as 52% and the inhibition in vivo at 50 mg/kg [1] is reported as 51%.
`CC(=O)N(CCCSc1ccncc1)Cc1ccccc1` [Example 75, 4-[3-(N-benzyl-N-acetylamino)propylthio]pyridine] showed an inhibition at 1 µM ([2]; 1 μM) of 5%, an inhibition at 10 µM ([2]; 10 μM) of 45% and an inhibition in vivo at 50 mg/kg [1] of 54%.
For `CC(=O)N(CCCSc1ccncc1)Cc1ccccn1` [Example 79, 4-[3-(N-2-pyridylmethyl-N-acetylamino)propylthio]pyridine], the inhibition in vivo at 50 mg/kg [1] was 48%.
`Cl.Cl.O=C(c1ccccc1)N(CCCSc1ccncc1)Cc1ccccn1` [Example 82, 4-[3-(N-2-pyridylmethyl-N-benzoylamino)propylthio]pyridine dihydrochloride] was tested, and the “Inhibitory percentage (phenylquinone writhing)” value (“Inhibitory percentage” below) [1] was 47%.
For `CC(C)(C)C(=O)NCCCOc1ccncc1` [Example 86, 4-(3-pivaloylaminopropyloxy) pyridine], the inhibition in vivo at 50 mg/kg [1] was 51%.
With `O=C(NCCCOc1ccncc1)c1cccnc1` [Example 87, 4-(3-nicotinoylaminopropyloxy)pyridine] the inhibition in vivo at 50 mg/kg [1] was 47%.
In the case of `CC(=O)N(CCCSc1ccncc1)Cc1cccs1.Cl` [Example 91, 4-[3-(N-(2-thienylmethyl)-N-acetylamino)-propylthio]pyridine hydrochloride], the “% Inhibition of ART growth” value ([2]; 1 μM) is reported as 44%, the “% Inhibition of ART growth” value ([2]; 10 μM) is reported as 42% and the “Inhibitory percentage” value [1] is reported as 52%.
In the case of `O=C(c1ccccc1)N(CCCSc1ccncc1)Cc1cccs1` [Example 92, 4-[3-(N-(2-thienylmethyl)-N-benzoylamino)propylthio]pyridine], the “Inhibitory percentage” value [1] is reported as 74%.
`O=C1[C@H]2CC=CC[C@H]2C(=O)N1CSc1ccncc1` [Example 96, 4-[cis-(1,2,3,6-tetrahydrophthalimido)methylthio]pyridine] gave an IC50 (cyclooxygenase) of 13 µM.
`O=C1c2ccccc2C(O)N1CCCOc1ccncc1` (stereo not drawn) [Example 99, 4-[3-(3-hydroxyisoindolin-1-on-2-yl)propyloxy]pyridine] gave an IC50 (cyclooxygenase) of 12 µM.
`O=C(NCCCCSc1ccncc1)c1ccccc1CO` [Example 106, 4-[4-(2-hydroxymethylbenzoyl)aminobutylthio]pyridine] was tested, and the IC50 (cyclooxygenase) was 3.7 µM.
`O=C1c2ccccc2C(O)N1CCCCSc1ccncc1` (stereo not drawn) [Example 107, 4-[4-(3-hydroxyisoindolin-1-on-2-yl)butylthio]pyridine] showed an IC50 (cyclooxygenase) of 4.3 µM.
Compound `O=C(NCCCOc1ccncc1)c1cc2ccccc2s1` [Example 115, 4-[3-(thianaphthene-2-carbonyl)aminopropyloxy]pyridine hydrochloride] has an inhibition at 1 µM ([2]; 1 μM) of 18% and an inhibition at 10 µM ([2]; 10 μM) of 53%.
With `O=C(c1ccccc1)N(CCOc1ccncc1)Cc1ccccc1` [Example 117, 4-[2-(N-benzyl-N-benzoyl)aminoethyloxy]pyridine] the “% Inhibition of ART growth” value ([2]; 1 μM) was 3% and the inhibition at 10 µM ([2]; 10 μM) was 39%.
Compound `O=C(N(CCSc1ccncc1)Cc1ccccc1)C(F)(F)F` [Example 119, 4-[2-(N-benzyl-N-trifluoroacetylamino)ethylthio]pyridine] has an IC50 (cyclooxygenase) of 4.6 µM, an inhibition at 1 µM ([2]; 1 μM) of 13% and an inhibition at 10 µM ([2]; 10 μM) of 43%.
With `O=C(c1ccccc1)N(CCSc1ccncc1)Cc1ccccc1` [Example 120, 4-[2-(N-benzyl-N-benzoylamino)ethylthio]pyridine] the inhibition at 1 µM ([2]; 1 μM) was 16% and the inhibition at 10 µM ([2]; 10 μM) was 74%.
In the case of `O=C(NCCSc1ccncc1)c1cccs1` [Example 122, 4-(2-thenoylaminoethylthio)pyridine], the IC50 (cyclooxygenase) is reported as 3.8 µM.
`CC1(C)NC(=O)N(CCCCSc2ccncc2)C1=O` [Example 140, 5,5-dimethyl-3-[4-(4-pyridylthio)butyl]hydantoin] was tested, and the inhibition at 1 µM ([2]; 1 μM) was -9% and the inhibition at 10 µM ([2]; 10 μM) was -25%.
`O=C(NCCCCOc1ccncc1)c1ccccc1CO` [Example 148, 4-[4-(2-hydroxymethylbenzoyl)aminobutyloxy]pyridine] was tested, and the IC50 (cyclooxygenase) was 3.1 µM.
`COc1ccc(C=C2SC(=O)N(CCCCSc3ccncc3)C2=O)cc1` [Example 152, 4-[4-[5-(4-methoxybenzylidene)-2,4-thiazolidinedione]butylthio]pyridine] gave an inhibition at 1 µM ([2]; 1 μM) of -20% and an inhibition at 10 µM ([2]; 10 μM) of 68%.
`O=C1SC(=Cc2ccccc2)C(=O)N1CCCSc1ccncc1` [Example 154, 4-[3-(5-benzylidene-2,4-thiazolidinedione)propylthio]pyridine] showed an IC50 (cyclooxygenase) of 6 µM, an inhibition at 1 µM ([2]; 1 μM) of 16% and an inhibition at 10 µM ([2]; 10 μM) of 27%.
Work on `O=C1CSC(=O)N1CCCCSc1ccncc1` [Example 160, 4-[4-(2,4-thiazolidinedione)butylthio]pyridine] yielded an inhibition at 1 µM ([2]; 1 μM) of -14% and an inhibition at 10 µM ([2]; 10 μM) of 33%.
Work on `O=C1SC(=Cc2ccccc2)C(=O)N1CCCCSc1ccccn1` [Example 164, 2-[4-(5-benzylidene-2,4-thiazolidinedione)butylthio]pyridine] yielded an inhibition at 1 µM ([2]; 1 μM) of 3% and an inhibition at 10 µM ([2]; 10 μM) of -54%.
`O=C1c2ccccc2S(=O)(=O)N1CCCCSc1ccncc1` [Example 166, 4-(4-saccharinbutylthio)pyridine] was tested, and the IC50 (cyclooxygenase) was 12 µM.
`O=C(NCCSc1ccncc1)c1ccccc1O` [Example 168, 4-[2-(2-hydroxybenzoyl)aminoethylthio]pyridine] gave an IC50 (cyclooxygenase) of 3.6 µM.
